Assay results as given in patent US20080058398A1, “Compounds” (priority 2006, published 2008).
Counter-ions that a name gives are not always drawn.

Columns and labels:
D3 = D3 (Homo sapiens, UniProt P35462); test: GTPγS scintillation proximity assay (GTPγS-SPA), antagonist format; format: biochemical; settings: higher than Enantiomer 1
Method: Functional potency and intrinsic activity of compounds of this invention can be measured by the following GTPγS scintillation proximity assay (GTPγS-SPA). Cells used in the study are Chinese Hamster Ovary (CHO) Cells.
Cell membranes are prepared as follows. Cell pellets are resuspended in 10 volumes of 50 mM HEPES, 1 mM EDTA pH 7.4, using KOH. On the day the following proteases are added to the buffer just prior to giving the homogenisation buffer.
25 ug/mL Bacitracin (Sigma B0125)−1000×stock=25 mg/mL in buffer
The cells are homogenised by 2×15 second bursts in a 1 litre Glass Waring blender in a class two biohazard cabinet. The resulting suspension is spun at 500 g for 20 mins (Beckman T21 centrifuge: 1550 rpm). The supernatant is withdrawn with a 25 mL pipette, aliquotted into pre-chilled centrifuge tubes and spun at 48,000 g to pellet membrane fragments (Beckman T1270: 23,000 rpm for 30 mins). The final 48,000 g pellet is resuspended in Homogenisation Buffer, (4× the volume of the original cell pellet). […] Protein content in the membrane preparations is evaluated with the Bradford protein assay.
The final top concentration of test drug is 3 uM in the assay and 11 points serial dilution curves 1:4 in 100% DMSO are carried out using a Biomek FX. […] Assay plates are counted on a Viewlux, 613/55 filter, for 5 min., between 2-6 hours after the final addition. […]

dopamine D3 receptors = dopamine D3 receptors (Homo sapiens, UniProt P35462); test: affinity for dopamine receptors (D3); format: binding
D2 receptors = D2 receptors (Homo sapiens, UniProt P14416); test: affinity for dopamine receptors (D2); format: binding
Sequence of D2 receptors (P14416 whole entry): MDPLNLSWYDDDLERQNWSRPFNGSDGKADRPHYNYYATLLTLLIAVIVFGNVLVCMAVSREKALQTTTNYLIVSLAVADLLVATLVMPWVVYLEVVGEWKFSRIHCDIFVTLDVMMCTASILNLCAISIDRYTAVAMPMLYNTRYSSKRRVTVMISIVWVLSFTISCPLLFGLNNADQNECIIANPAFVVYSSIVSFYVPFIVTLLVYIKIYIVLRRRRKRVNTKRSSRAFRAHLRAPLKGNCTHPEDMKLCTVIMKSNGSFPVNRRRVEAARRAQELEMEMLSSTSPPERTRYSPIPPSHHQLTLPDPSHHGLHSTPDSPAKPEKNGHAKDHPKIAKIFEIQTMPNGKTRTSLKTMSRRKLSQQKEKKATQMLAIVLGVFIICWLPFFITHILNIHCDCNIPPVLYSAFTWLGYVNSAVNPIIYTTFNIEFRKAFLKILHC

[1] = solid state accelerated stability (appearance, assay and total impurities by HPLC)
Method: The solid state accelerated condition adopted were 40° C./75% RH (Relative Humidity) closed and exposed, and 50° C./amb RH (Ambient Relative Humidity) closed under air atmosphere.
At one month time point the following samples have been analysed for the appearance, assay and total impurities.
Assay and total impurities tests have been performed by HPLC with fast gradient method.

Sequence of dopamine D3 receptors (P35462 whole entry): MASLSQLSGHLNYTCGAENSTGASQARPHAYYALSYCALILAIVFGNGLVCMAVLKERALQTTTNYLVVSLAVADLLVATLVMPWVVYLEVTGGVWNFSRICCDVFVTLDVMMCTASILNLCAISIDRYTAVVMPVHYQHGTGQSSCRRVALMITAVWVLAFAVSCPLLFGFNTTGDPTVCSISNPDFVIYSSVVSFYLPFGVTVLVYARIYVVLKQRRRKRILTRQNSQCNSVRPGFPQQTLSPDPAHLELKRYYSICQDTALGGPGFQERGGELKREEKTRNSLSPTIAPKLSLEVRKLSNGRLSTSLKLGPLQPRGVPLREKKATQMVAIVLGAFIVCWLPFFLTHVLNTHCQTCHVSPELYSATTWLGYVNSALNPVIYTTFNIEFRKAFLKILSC
Sequence of D3 (P35462 whole entry): as above

Cc1ncoc1-c1nnc(SCCCN2C[C@@H]3C[C@]3(c3ccc(C(F)(F)F)cc3F)C2)n1C (single isomer, unassigned) [Enantiomer 2]
fpKi (D3) difference (D3): > 1 log-unit | affinity for dopamine D3 receptors (dopamine D3 receptors): exhibit affinity | affinity for dopamine D3 versus D2 receptors (dopamine D3 receptors; D3 compared with D2): greater affinity for dopamine D3 than for D2 receptors | affinity for dopamine D2 receptors (D2 receptors): exhibit affinity

Cc1ncoc1-c1nnc(SCCCN2C[C@@H]3C[C@]3(c3ccc(C(F)(F)F)cc3F)C2)n1C [Preparation 7, (1S,5R)-1-[2-Fluoro-4-(trifluoromethyl)phenyl]-3-(3-{[4-methyl-5-(4-methyl-1,3-oxazol-5-yl)-4H-1,2,4-triazol-3-yl]thio}propyl)-3-azabicyclo[3.1.0]hexane hydrochloride]
change of total impurities ([1]; at any investigated stability condition): increase of total impurities

Cc1ncoc1-c1nnc(SCCCN2C[C@@H]3C[C@]3(c3ccc(C(F)(F)F)cc3F)C2)n1C.O=C(O)C(O)C(O)C(=O)O [Example 1, (1S,5R)-1-[2-fluoro-4-(trifluoromethyl)phenyl]-3-(3-{[4-methyl-5-(4-methyl-1,3-oxazol-5-yl)-4H-1,2,4-triazol-3-yl]thio}propyl)-3-azabicyclo[3.1.0]hexane (2R,3R) tartrate]
stability in comparison with the hydrochloride salt [1]: improved stability | total impurities ([1]; after 1 month, at any stability condition tested): around 0.5 % a/a

Cc1ncoc1-c1nnc(SCCCN2CC3CC3(c3ccc(C(F)(F)F)cc3F)C2)n1C (centres unmarked) [the tartrate, 1-[2-fluoro-4-(trifluoromethyl)phenyl]-3-(3-{[4-methyl-5-(4-methyl-1,3-oxazol-5-yl)-4H-1,2,4-triazol-3-yl]thio}propyl)-3-azabicyclo[3.1.0]hexane]
stability in comparison with the hydrochloride salt [1]: improved stability
